Data reported in patent US10723702B2, “Photocrosslinking reagents and methods of use thereof” (Northwestern University, priority 2015, dated 2020).
Entries after “also recorded” stand apart in the source; their conditions may differ.

Tests used:
[1] = biological target: T1, E6AP-HECT (Homo sapiens, UniProt Q05086); settings: read-out: Binding affinity Kd for E6AP-HECT; cited from earlier work
T1 sequence (Q05086 495-852 isoform Q05086-2 limits assumed): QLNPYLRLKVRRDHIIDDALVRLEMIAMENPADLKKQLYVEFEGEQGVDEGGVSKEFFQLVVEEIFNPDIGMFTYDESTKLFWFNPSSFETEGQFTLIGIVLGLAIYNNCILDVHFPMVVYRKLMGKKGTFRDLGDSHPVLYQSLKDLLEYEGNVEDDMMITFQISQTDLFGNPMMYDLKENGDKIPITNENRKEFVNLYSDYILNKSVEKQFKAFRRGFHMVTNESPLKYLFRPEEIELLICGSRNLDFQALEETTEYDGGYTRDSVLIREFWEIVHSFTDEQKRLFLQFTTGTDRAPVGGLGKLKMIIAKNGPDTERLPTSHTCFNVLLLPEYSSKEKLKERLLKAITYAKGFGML

[2] = test system: UbcH7 mutants with a single cysteine available; experiment: Alkylation conversion of UbcH7 mono-cysteine mutants by crosslinker, estimated by LCMS; type: biochemical, human; settings: all mono-cysteine UbcH7 mutants; intact protein mass spectrometry
Method: Crosslinker in DMF (500 mM, 5 mM final concentration) was added to a UbcH7 cysteine mutant (100-200 μM in UbcH7 storage buffer; 1% DMF v/v final concentration). The resulting reaction mixture was mixed by pipetting, covered with aluminum foil, and rocked at room temperature (crosslinkers 1), or 4° C. (crosslinker 2 and 3) for 90 minutes. Immediately following, the solution was desalted/exchanged into PBS(B) with a Zeba Spin Desalting Column (7 kDa MWCO Pierce), frozen in N2(l), and stored at −80° C. The extent of alklylation was analyzed by LC-MS.
(§1) Alkylation of UbcH7 cysteine mutants occurred readily by incubating 50-300 μM UbcH7 with 5 mM crosslinker 1 at room temperature for 90 minutes before removing free crosslinker with a desalting column. […] The UbcH7 CΔS-1 mutants (10 μM) were then mixed with the E6AP catalytic HECT domain (10 μM) and irradiated at 365 nm for 10 minutes in a 96-well plate. The reaction mixtures were then resolved with reducing SDS-PAGE and analyzed with anti-UbcH7 western blot. Photocrosslinking of UbcH7 to E6AP depends on the presence of both UV irradiation and E6AP (FIG. 6).

[3] = test system: E6AP HECT domain; experiment: Photocrosslinking of crosslinker-alkylated UbcH7 to E6AP HECT (365 nm, SDS-PAGE/western blot); type: biochemical; settings: for Crosslinking of E6AP by UbcH7 CΔS F63A mutants or their Ub oxyesters bearing crosslinker: F63A negative control
Method: (§2) FIG. 4. […] UbcH7 CΔS E93C-2 or UbcH7 CΔS E93C-3 (10 μM final concentration) was incubated with E6AP-HECT (10 μM final concentration) in PBS(B) with 6 μM Tween-20 and 1 mM DTT. After keeping samples in the dark or irradiating at 365 nm for 10 minutes, they were quenched with 6× Laemmli buffer and β-mercaptoethanol (β-ME) and then boiled at 95° C. for 5 minutes. Covalently crosslinked protein complexes were resolved by SDS-PAGE and visualized by western blot and coomassie.
(§3) E6AP HECT was exchanged into crosslinker buffer with Zeba Spin Desalting Column and mixed (14 μM final concentration, 480 μg) with Tween-20 (6 μM), DTT (1 mM) in PBS(B) in a 1.5 mL tube. The reaction mixture was then taken to a darkened room where alkylated UbcH7 (14 μM, final concentration, 203 μg) was added (final volume of reaction mixture was 790 μL). The solution was mixed by pipetting and then transferred to four wells of a 96 well plate (Costar #3370). The plate was placed 3 cm below a UV lamp (UVP 3UV-38 3UV Lamp; 8 watt, 115V ˜60 Hz, 0.16 Amps) and irradiated at 365 nm for 10 minutes.
(§4) Following irradiation, the sample was mixed with Laemmli buffer and β-mercaptoethanol (230 mM final concentration) and boiled for five minutes. Crosslinking experiments in main text FIGS. 2, 3, and 4 were performed similarly with 20-50 μL total volume and with the indicated final concentrations of UbcH7 and E6AP.
as §1

[4] = test system: UbcH7; experiment: UbcH7 C86S-Ub oxyester formation by crosslinker-alkylated UbcH7; type: biochemical, human; settings: oxyester formation and ubiquitin transfer retained
Method: (§5) FIGS. 5A-C. Crosslinker-modified UbcH7 charged with ubiquitin. UbcH7 C86S-Ub oxyester interacts with E6AP to transfer ubiquitin. (A.) Each alkylated mutant is competent to form an UbcH7 C86S-Ub oxyester except when the catalytic cysteine C86 is alkylated with crosslinker (lane 9). UbcH7 mutants alkylated by crosslinker 1 at the indicated residue (5 μM) were incubated with Ube1 (200 nM), ubiquitin (10 μM) in the dark at 37° C. for 15 hours in 25 mM HEPES pH 7.5, 50 mM NaCl, 10 mM MgCl2, 1 mM DTT with or without ATP (185 μM). Reactions were quenched with 6× Laemmli buffer with β-ME and incubated at room temperature for 5 minutes without boiling. The “*” marks a faint GST impurity. […] (C.) UbcH7 CΔS-Ub oxyester alkylated with crosslinker transfers ubiquitin to E6AP HECT (compare to FIG. 2B where E6AP HECT is a single band). […] UbcH7-Ub oxyester (5 μM) was incubated with or without E6AP-HECT (5 μM) in PBS(B) for 20 hours at room temperature. Reactions were quenched with 6× Laemmli buffer with β-ME and incubated at room temperature for 5 minutes without boiling.

[5] = test system: UbcH7/E6AP interaction; experiment: Ubiquitin transfer from alkylated UbcH7 CΔS-Ub oxyester to E6AP HECT; type: biochemical; settings: UbcH7-Ub oxyester 5 μM, E6AP-HECT 5 μM, PBS(B), 20 hours, room temperature
Method: as §5

[6] = biological target: T2, E6AP HECT domain (Homo sapiens, UniProt Q05086); experiment: Photocrosslinking of crosslinker-alkylated UbcH7 to E6AP HECT (365 nm, SDS-PAGE/western blot); type: biochemical; settings: crosslinker on UbcH7 CΔS E93C 10 μM, E6AP-HECT 10 μM, 365 nm 10 minutes
T2 construct: Underlined residues remain from the GST tag and are not part; GST (N, cleaved yes); made in house; host or cells: E. coli Rosetta (DE3) pLysS (E6AP HECT); E. coli BL21 (UbcH7)
T2 sequence (Q05086 with tags, fused parts or gaps): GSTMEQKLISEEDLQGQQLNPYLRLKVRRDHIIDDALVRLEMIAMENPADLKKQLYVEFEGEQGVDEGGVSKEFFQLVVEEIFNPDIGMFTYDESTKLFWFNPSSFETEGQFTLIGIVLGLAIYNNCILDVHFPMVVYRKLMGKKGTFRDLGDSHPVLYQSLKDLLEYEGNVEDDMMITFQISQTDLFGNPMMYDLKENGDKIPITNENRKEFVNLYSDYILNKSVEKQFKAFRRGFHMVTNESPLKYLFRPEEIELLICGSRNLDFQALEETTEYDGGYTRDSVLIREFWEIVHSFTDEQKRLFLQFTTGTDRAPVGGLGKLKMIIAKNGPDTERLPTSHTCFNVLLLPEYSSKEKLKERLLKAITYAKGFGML
Method: as §2, §3, §4, §1

[7] = Acid cleavage of crosslinker in photocrosslinked UbcH7-E6AP complex; type: physicochemical; settings: pH 1, 55° C.
Method: FIGS. 12A-E. Mass spectrometry protocol to identify crosslinker modifications on E6AP. A. The band corresponding to the crosslinked UbcH7-E6AP complex was excised and loaded to the denaturing electroelution device. After eluting complexes from the gels, photocrosslinked protein complexes were cleaved under acidic conditions, trypsinized, and then analyzed. B. Crosslinker 2 is cleavable at pH 1, 55° C. I. UbcH7-E6AP crosslink. II. E6AP-HECT. C. By conducting the acidic cleavage of photocrosslinked proteins in Tris-Glycine-SDS buffer, we avoided hydrolysis of the peptide backbone. I. UbcH7-E6AP crosslink. II. E6AP-HECT. III. UbcH7. D. MS^2 identification of E6AP Lys^847 modified by crosslinker 2. y-ions are highlighted. The full spectrum and b-ion identification can be found in Spectral Appendix I. E. Residue map of the E6AP C-terminus indicating sites of crosslinker modification by UbcH7 CΔS E93C-2/3 or UbcH7 CΔS E93C Ub-2/3.
Electroelution fractions in Tris-Glycine-SDS buffer were treated with 1 M aqueous HCl (protein sample/1 M HCl 4:1 v/v) to obtain pH 1 in a 1.5 microcentrifuge tube (one gel's worth of elution per tube). […]
To identify the photocrosslinked sites of E6AP, a mass spectrometry protocol was developed. […] Finally, protein was precipitated with acetone, digested with trypsin, and then analyzed the peptides with an Orbitrap Velos.

[8] = biological target: T3, UbcH7 (Homo sapiens, UniProt P68036, C137S/C17S/C86S/E93C); experiment: UbcH7 C86S-Ub oxyester formation by crosslinker-alkylated UbcH7; type: biochemical; settings: crosslinker on UbcH7 CΔS E93C; Ube1, ubiquitin, ATP, 37° C., 15 hours
T3 construct: Underlined residues remain from the GST tag and are not part; GST (N, cleaved yes); made in house; host or cells: E. coli BL21 (UbcH7)
Method: as §5

T3 sequence (P68036 with tags, fused parts or gaps C17S/C86S/E93C/C137S): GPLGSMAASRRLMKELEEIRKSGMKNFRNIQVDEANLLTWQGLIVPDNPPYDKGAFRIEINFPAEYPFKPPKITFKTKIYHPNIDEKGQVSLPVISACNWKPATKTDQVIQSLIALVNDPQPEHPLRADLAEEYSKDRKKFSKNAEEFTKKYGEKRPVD

Photocrosslinking efficiency [6] | Cleavage of crosslinker under acidic conditions [7] | Molecule | Kd [1] [µM] | Labeling (mono-alkylation) of UbcH7 cysteine mutants, in words [2] | Crosslinking of E6AP by UbcH7 CΔS F63A mutants or their Ub oxyesters bearing crosslinker [3] | Crosslinking efficiency by crosslinker position on UbcH7 ([3]; crosslinker placed at UbcH7 CΔS E93C or catalytic cysteine Cys86, 10 μM each, 365 nm 10 minutes) | Effect of mutagenesis and alkylation with crosslinker on E2 enzyme structure [4] | Interference of crosslinker with UbcH7/E6AP interaction (ubiquitin transfer to E6AP HECT) [5] | Effect of crosslinker on efficiency of UbcH7-Ub oxyester formation [8]
– | – | UbcH7: E2 enzyme upstream of E6AP (SEQ ID NO: 2) | 5 | – | – | – | – | – | –
– | – | CC1(CCNC(=O)CI)N=N1 [Crosslinker 1] | – | quantitatively labeled every UbcH7 cysteine mutant; also recorded: near quantitative mono-alkylation | did not crosslink E6AP | most efficient crosslinking | did not compromise the E2 enzyme structure | does not interfere with the UbcH7/E6AP interaction | –
equal photocrosslinking efficiency | – | [2H]C([2H])([2H])C1(C([2H])([2H])COS(=O)(=O)NC(=O)CI)N=N1 [Crosslinker 3] | – | not as reactive with some of the mutants | – | – | did not compromise the E2 enzyme structure | – | –
equal photocrosslinking efficiency | cleavable | CC1(CCOS(=O)(=O)NC(=O)CI)N=N1 [Crosslinker 2] | – | not as reactive with some of the mutants | did not crosslink E6AP | – | did not compromise the E2 enzyme structure | – | does not affect the efficiency of UbcH7-Ub oxyester formation
